{"source": "patent US7265156B2", "about": "(Dospharma, priority 2000, dated 2007)", "key": {"NIDDM patients": {"tested_on": "NIDDM patients", "settings": "humans, simultaneous administration, arginine 30 g intravenous over 30 min; cited from earlier work"}, "[1]": {"tested_on": "rats made diabetic with fructose", "test": "Anti-diabetic activity in rats made diabetic with fructose at 10% in the drinking water", "assay_type": "in vivo, rat", "settings": "for 21 days fructose (glycemia mM) / Control (glycemia mM): rats; for 21 days fructose (glycemia mM): group baseline after 21 days fructose, before treatment; for Control (glycemia mM): group baseline before fructose and before treatment", "description": "The second model is prepared by administering fructose at 10% in the drinking water of the rats for three weeks. An insulin resistance develops, followed by diabetes of […] type. […]"}, "[2]": {"tested_on": "microcirculation of the hamster cheek pouch", "test": "Study on the cheek pouch of the hamster (microcirculation)", "assay_type": "in vivo", "settings": "vasodilatory action of arginine and action of metformin on vasomotion"}, "[3]": {"test": "In vitro assay of cleavage in an intestinal juice", "assay_type": "in vitro ADME", "settings": "37° C., arginine hemisuccinimide part not modified", "description": "A preparation of intestinal juice containing trypsin, peptidases, lipase, amylase and all the other enzymes of the exocrine pancreas is used. This assay is validated beforehand using calibration compounds. A known amount (of the order of one microgram) of the compound A′V′C′ is mixed together with a known amount of intestinal juice (the trypsin and lipase contents of which are controlled). The reaction mixture is kept at 37° C. for one hour. This time is compatible with the intestinal transit. Samples are taken every 15 min, and the products A and C are detected and their concentration measured using HPLC coupled to a UV detector, or a mass spectrometer if it is not possible to use UV. The columns used depend on the nature of A and of C, but are generally ion-exchange columns, because of the presence of released alcohol, amine or acid forms. […] This assay can be coupled with determination of the release of A (biguanide), C (transporter) and V in the gastric juice, using exactly the same principle but replacing the intestinal juice with gastric juice.\nA second assay is carried out on a rat hepatocyte culture, according to the method described above."}, "[4]": {"tested_on": "hamsters made diabetic by fructose", "test": "Anti-diabetic activity in hamsters made diabetic by fructose for three months", "assay_type": "in vivo, hamster", "settings": "for 2 weeks treatment (glycemia mg/dl): hamsters, fructose 3 months, 10 mg/kg/day, fructose only 143, control without fructose 91 mg/dl", "description": "The anti diabetic activity was also tested on hamsters made diabetic by the administration of fructose for three months. […]"}, "[5]": {"tested_on": "rats made diabetic with streptozotocin", "test": "Anti-diabetic activity in rats made diabetic with streptozotocin", "assay_type": "in vivo, rat", "settings": "streptozotocin rats (50 mg/kg IP); for hyperglycemia after treatment: 30 mg/kg; for hyperglycemia before treatment: baseline of the 30 mg/kg group", "description": "From the pharmacological point of view, the anti-diabetic activity was studied on two models of rats made diabetic."}, "[6]": {"settings": "50 mg/kg"}, "[7]": {"tested_on": "streptozotocine model and fructose model", "settings": "rats, 50 mg/kg; cited from earlier work"}}, "note": "Where a name gives a salt, the structure may show the parent alone. Read-outs that look alike come from different tables or passages of the source."}
{"molecule": "N=C(N)NCCC[C@H](N)C(=O)O", "note": "[arginine]", "values": [{"measurement": "effect on the antihyperglycemic effects of metformin", "setting": "NIDDM patients", "value": "not modified"}, {"measurement": "4 days treatment (glycemia mM)", "setting": "[1]; fructose rats, 30 mg/kg/day", "value": "14.37 ± 0.20", "unit": "mM"}, {"measurement": "8 days treatment (glycemia mM)", "setting": "[1]; fructose rats, 30 mg/kg/day", "value": "12.56 ± 0.89", "unit": "mM"}, {"measurement": "12 days treatment (glycemia mM)", "setting": "[1]; fructose rats, 30 mg/kg/day", "value": "11.98 ± 0.71", "unit": "mM"}, {"measurement": "21 days treatment (glycemia mM)", "setting": "[1]; fructose rats, 30 mg/kg/day", "value": "10.73 ± 1.27", "unit": "mM"}, {"measurement": "21 days fructose (glycemia mM)", "setting": "[1]", "value": "13.24 ± 0.62", "unit": "mM"}, {"measurement": "Control (glycemia mM)", "setting": "[1]", "value": "6.87 ± 0.14", "unit": "mM"}]}
{"molecule": "arginine hemisuccinimide-metformin hemisuccinate", "values": [{"measurement": "effects on the microcirculation", "setting": "[2]", "value": "reproduces at least the effects of the two active principles"}, {"measurement": "release of the metformin", "setting": "[3]", "value": "Immediate release"}, {"measurement": "anti-diabetic activity compared with metformin on its own", "setting": "[4]; fructose hamsters, equal dose of 10 mg/kg/day, two weeks of treatment", "value": "significantly more active"}, {"measurement": "2 weeks treatment (glycemia mg/dl)", "setting": "[4]", "value": 93, "unit": "mg/dL"}, {"measurement": "hyperglycemia after treatment", "setting": "[5]", "value": 7.56, "unit": "mM"}, {"measurement": "hyperglycemia before treatment", "setting": "[5]", "value": 12.66, "unit": "mM"}, {"measurement": "time of concentration peak", "setting": "[6]; rats, oral, plasma metformin", "value": 60, "unit": "min"}, {"measurement": "4 days treatment (glycemia mM)", "setting": "[1]; fructose rats, 70 mg/kg/day", "value": "10.92 ± 0.44", "unit": "mM"}, {"measurement": "8 days treatment (glycemia mM)", "setting": "[1]; fructose rats, 70 mg/kg/day", "value": "9.13 ± 0.64", "unit": "mM"}, {"measurement": "12 days treatment (glycemia mM)", "setting": "[1]; fructose rats, 70 mg/kg/day", "value": "8.43 ± 0.52", "unit": "mM"}, {"measurement": "21 days treatment (glycemia mM)", "setting": "[1]; fructose rats, 70 mg/kg/day", "value": "7.76 ± 0.78", "unit": "mM"}, {"measurement": "anti-diabetic activity compared with metformin alone", "setting": "[1]; fructose rats, equivalent dose of metformin base", "value": "significantly more active"}, {"measurement": "21 days fructose (glycemia mM)", "setting": "[1]", "value": "12.14 ± 0.28", "unit": "mM"}, {"measurement": "Control (glycemia mM)", "setting": "[1]", "value": "6.84 ± 0.06", "unit": "mM"}]}
{"molecule": "CN(C)C(=N)N=C(N)N", "note": "[metformin hydrochloride]", "values": [{"measurement": "activity on conventional models of non-insulin dependent diabetes", "setting": "[7]", "value": "active"}, {"measurement": "concentration peak", "setting": "[6]; rat, in vivo, po", "value": 3900, "unit": "ng/mL"}, {"measurement": "time of concentration peak", "setting": "[6]; rat, in vivo, po", "value": "≤ 90", "unit": "min"}]}
{"molecule": "CN(C)C(=N)NC(=N)N", "note": "[metformin, N,N-dimethylimidodicarbonimidic diamide]", "values": [{"measurement": "2 weeks treatment (glycemia mg/dl)", "setting": "[4]", "value": 112, "unit": "mg/dL"}, {"measurement": "effect on the hemodynamic and hemorheological action of arginine", "setting": "NIDDM patients", "value": "potentiates"}, {"measurement": "hyperglycemia after treatment", "setting": "[5]", "value": 9.85, "unit": "mM"}, {"measurement": "hyperglycemia before treatment", "setting": "[5]", "value": 12.11, "unit": "mM"}, {"measurement": "4 days treatment (glycemia mM)", "setting": "[1]; fructose rats, 30 mg/kg/day", "value": "13.41 ± 0.52", "unit": "mM"}, {"measurement": "8 days treatment (glycemia mM)", "setting": "[1]; fructose rats, 30 mg/kg/day", "value": "10.83 ± 0.64", "unit": "mM"}, {"measurement": "12 days treatment (glycemia mM)", "setting": "[1]; fructose rats, 30 mg/kg/day", "value": "9.78 ± 0.72", "unit": "mM"}, {"measurement": "21 days treatment (glycemia mM)", "setting": "[1]; fructose rats, 30 mg/kg/day", "value": "9.87 ± 0.68", "unit": "mM"}, {"measurement": "21 days fructose (glycemia mM)", "setting": "[1]", "value": "12.52 ± 0.52", "unit": "mM"}, {"measurement": "Control (glycemia mM)", "setting": "[1]", "value": "6.94 ± 0.13", "unit": "mM"}]}
